According to patent US8952024B2, “Herbicidal pyrimidone derivatives” (E I du Pont de Nemours and Company, priority 2009, dated 2015):

Experiments:
Format in all cases: in vivo
[1] = tested on: barnyardgrass (Echinochloa crus-galli); test: Test A pre-/postemergence plant response
Source text: (§1) Seeds of barnyardgrass (Echinochloa crus-galli), large crabgrass (Digitaria sanguinalis), giant foxtail (Setaria faberii), morningglory (Ipomoea spp.), pigweed (Amaranthus retroflexus), velvetleaf (Abutilon theophrasti), wheat (Triticum aestivum) and corn (Zea mays) were planted into a blend of loam soil and sand and treated preemergence with a directed soil spray using test chemicals formulated in a non-phytotoxic solvent mixture which included a surfactant. At the same time these species were also treated with postemergence applications of test compounds formulated in the same manner.
(§2) Plants ranged in height from two to ten cm and were in the one- to two-leaf stage for the postemergence treatment. Treated plants and untreated controls were maintained in a greenhouse for approximately ten days, after which time all treated plants were compared to untreated controls and visually evaluated for injury. Plant response ratings, summarized in Table A, are based on a 0 to 100 scale where 0 is no effect and 100 is complete control. A dash (-) response means no test result.

corn (Zea mays) = test: Test A pre-/postemergence plant response
Source text: as §1, §2

[2] = tested on: giant foxtail (Setaria faberii); test: Test A pre-/postemergence plant response
Source text: as §1, §2

[3] = tested on: large crabgrass (Digitaria sanguinalis); test: Test A pre-/postemergence plant response
Source text: as §1, §2

[4] = tested on: morningglory (Ipomoea spp.); test: Test A pre-/postemergence plant response
Source text: as §1, §2

[5] = tested on: pigweed (Amaranthus retroflexus); test: Test A pre-/postemergence plant response
Source text: as §1, §2

[6] = tested on: velvetleaf (Abutilon theophrasti); test: Test A pre-/postemergence plant response
Source text: as §1, §2

[7] = tested on: wheat (Triticum aestivum); test: Test A pre-/postemergence plant response
Source text: as §1, §2

[8] = tested on: barnyardgrass (Echinochloa crus-galli); test: Test B flooded paddy test; conditions: for Plant response rating, Flood, Barnyardgrass: 250 g ai/ha, flooded paddy test, visual rating on 0 to 100 scale (0 no effect, 100 complete control) after 13 to 15 days; for Plant response rating, Barnyardgrass: Flood (flooded paddy test), 13 to 15 days; for Barnyardgrass plant response rating: Flood, 31 g ai/ha, scale 0 to 100 (0 no effect, 100 complete control)
Outline: (§3)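 Rice, umbrella sedge, ducksalad and barnyardgrass were grown to the 2-leaf stage, flooded to 3 cm, and compound was applied directly to the paddy water, with that depth kept throughout. After 13 to 15 days in the greenhouse, plants were visually rated against controls on a 0 (no effect) to 100 (complete control) scale.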

[9] = tested on: ducksalad (Heteranthera limosa); test: Test B flooded paddy test; conditions: for Plant response rating, Flood, Ducksalad: 250 g ai/ha, flooded paddy test, visual rating on 0 to 100 scale (0 no effect, 100 complete control) after 13 to 15 days; for Plant response rating, Ducksalad: Flood (flooded paddy test), 13 to 15 days; for Ducksalad plant response rating: Flood, 31 g ai/ha, scale 0 to 100 (0 no effect, 100 complete control)
Outline: as §3

rice (Oryza sativa) = test: Test B flooded paddy test; conditions: for Plant response rating, Flood, Rice: 250 g ai/ha, flooded paddy test, visual rating on 0 to 100 scale (0 no effect, 100 complete control) after 13 to 15 days; for Plant response rating, Rice: Flood (flooded paddy test), 13 to 15 days; for Rice plant response rating: Flood, 31 g ai/ha, scale 0 to 100 (0 no effect, 100 complete control)
Outline: as §3

[10] = tested on: umbrella sedge (Cyperus difformis); test: Test B flooded paddy test; conditions: for Plant response rating, Flood, Sedge, Umbrella: 250 g ai/ha, flooded paddy test, visual rating on 0 to 100 scale (0 no effect, 100 complete control) after 13 to 15 days; for Plant response rating, Sedge, Umbrella: Flood (flooded paddy test), 13 to 15 days; for Sedge, Umbrella plant response rating: Flood, 31 g ai/ha, scale 0 to 100 (0 no effect, 100 complete control)
Outline: as §3

[11] = Postemergence, 125 g ai/ha, 0 to 100 scale where 0 is no effect and 100 is complete control
[12] = Postemergence, 500 g ai/ha, visual injury, 0 to 100 scale (0 no effect, 100 complete control), approx. ten days
[13] = Preemergence, 125 g ai/ha, 0 to 100 scale, 0 = no effect, 100 = complete control
[14] = Preemergence, 500 g ai/ha, 0 to 100 scale, 0 = no effect, 100 = complete control
[15] = 62 g ai/ha, scale of 0 to 100 where 0 is no effect and 100 is complete control
[16] = 125 g ai/ha, scale 0 to 100, 0 is no effect, 100 is complete control
[17] = Postemergence, 500 g ai/ha, 0 to 100 scale, 0 = no effect, 100 = complete control, approx. ten days
[18] = Preemergence, 500 g ai/ha, visual injury, 0 to 100 scale (0 no effect, 100 complete control), approx. ten days

`Cc1ccc(C)c(-n2c(-c3ccccc3)ncc(C(=O)c3cnoc3C3CC3)c2=O)c1` [Compound 222] was tested, and the “Plant response rating, Barnyardgrass” value [1, 11] was 10, the “Barnyardgrass plant response rating” value [1, 12] was 80 and the “Plant response rating, Barnyardgrass” value [1, 13] was 0. For the same compound, the “Plant response rating, Barnyardgrass” value [1, 14] was 60, the “Plant response rating, Corn” value (corn (Zea mays); [11]) was 0 and the “Corn plant response rating” value (corn (Zea mays); [12]) was 0. The “Plant response rating, Corn” value (corn (Zea mays); [13]) was 0, the “Plant response rating, Corn” value (corn (Zea mays); [14]) was 0 and the “Plant response rating, Foxtail, Giant” value [2, 11] was 0. For the same compound, the “Foxtail, Giant plant response rating” value [2, 12] was 40, the “Plant response rating, Foxtail, Giant” value [2, 13] was 30 and the “Plant response rating, Foxtail, Giant” value [2, 14] was 60. The “Plant response rating, Crabgrass, Large” value [3, 11] was 0, the “Crabgrass, Large plant response rating” value [3, 12] was 30 and the “Plant response rating, Crabgrass, Large” value [3, 13] was 20. For the same compound, the “Plant response rating, Crabgrass, Large” value [3, 14] was 20, the “Plant response rating, Morningglory” value [4, 11] was 30 and the “Morningglory plant response rating” value [4, 12] was 40. The “Plant response rating, Morningglory” value [4, 13] was 0, the “Plant response rating, Morningglory” value [4, 14] was 40 and the “Plant response rating, Pigweed” value [5, 11] was 40. For the same compound, the “Pigweed plant response rating” value [5, 12] was 70, the “Plant response rating, Pigweed” value [5, 13] was 0 and the “Plant response rating, Pigweed” value [5, 14] was 0. For the same compound, the “Plant response rating, Velvetleaf” value [6, 11] was 60, the “Velvetleaf plant response rating” value [6, 12] was 90 and the “Plant response rating, Velvetleaf” value [6, 13] was 0. The “Plant response rating, Velvetleaf” value [6, 14] was 60, the “Plant response rating, Wheat” value [7, 11] was 0 and the “Wheat plant response rating” value [7, 12] was 0. For the same compound, the “Plant response rating, Wheat” value [7, 13] was 0, the “Plant response rating, Wheat” value [7, 14] was 0 and the “Plant response rating, Flood, Barnyardgrass” value [8] was 0. The “Plant response rating, Barnyardgrass” value [8, 15] was 0, the “Plant response rating, Flood, Ducksalad” value [9] was 65 and the “Plant response rating, Ducksalad” value [9, 15] was 50. The “Plant response rating, Flood, Rice” value (rice (Oryza sativa)) was 0, the “Plant response rating, Rice” value (rice (Oryza sativa); [15]) was 0 and the “Plant response rating, Flood, Sedge, Umbrella” value [10] was 40. The “Plant response rating, Sedge, Umbrella” value [10, 15] was 30.

In the case of `O=C1CCCC(O)=C1C(=O)c1cnc(-c2cccc(C(F)(F)F)c2)n(C2CCCCC2)c1=O` [Compound 195], the “Plant response rating, Barnyardgrass” value [1, 11] is reported as 70, the “Barnyardgrass plant response rating” value [1, 12] is reported as 90 and the “Plant response rating, Barnyardgrass” value [1, 13] is reported as 0. The “Plant response rating, Barnyardgrass” value [1, 14] was 10, the “Plant response rating, Corn” value (corn (Zea mays); [11]) was 0 and the “Corn plant response rating” value (corn (Zea mays); [12]) was 20. For the same compound, the “Plant response rating, Corn” value (corn (Zea mays); [13]) was 0, the “Plant response rating, Corn” value (corn (Zea mays); [14]) was 0 and the “Plant response rating, Foxtail, Giant” value [2, 11] was 30. The “Foxtail, Giant plant response rating” value [2, 12] was 70, the “Plant response rating, Foxtail, Giant” value [2, 13] was 0 and the “Plant response rating, Foxtail, Giant” value [2, 14] was 30. For the same compound, the “Plant response rating, Crabgrass, Large” value [3, 11] was 40, the “Crabgrass, Large plant response rating” value [3, 12] was 90 and the “Plant response rating, Crabgrass, Large” value [3, 13] was 0. The “Plant response rating, Crabgrass, Large” value [3, 14] was 50, the “Plant response rating, Morningglory” value [4, 11] was 60 and the “Plant response rating, Morningglory” value [4, 13] was 0. For the same compound, the “Plant response rating, Morningglory” value [4, 14] was 0, the “Plant response rating, Pigweed” value [5, 11] was 90 and the “Pigweed plant response rating” value [5, 12] was 100. For the same compound, the “Plant response rating, Pigweed” value [5, 13] was 0, the “Plant response rating, Pigweed” value [5, 14] was 10 and the “Plant response rating, Velvetleaf” value [6, 11] was 100. The “Velvetleaf plant response rating” value [6, 12] was 100, the “Plant response rating, Velvetleaf” value [6, 13] was 0 and the “Plant response rating, Velvetleaf” value [6, 14] was 50. The “Plant response rating, Wheat” value [7, 11] was 0, the “Wheat plant response rating” value [7, 12] was 0 and the “Plant response rating, Wheat” value [7, 13] was 0. For the same compound, the “Plant response rating, Wheat” value [7, 14] was 20, the “Plant response rating, Flood, Barnyardgrass” value [8] was 20 and the “Plant response rating, Barnyardgrass” value [8, 15] was 0. The “Plant response rating, Barnyardgrass” value [8, 16] was 0, the “Barnyardgrass plant response rating” value [8] was 0 and the “Plant response rating, Flood, Ducksalad” value [9] was 85. The “Plant response rating, Ducksalad” value [9, 15] was 50, the “Plant response rating, Ducksalad” value [9, 16] was 70 and the “Ducksalad plant response rating” value [9] was 0. The “Plant response rating, Flood, Rice” value (rice (Oryza sativa)) was 15, the “Plant response rating, Rice” value (rice (Oryza sativa); [15]) was 0 and the “Plant response rating, Rice” value (rice (Oryza sativa); [16]) was 0. For the same compound, the “Rice plant response rating” value (rice (Oryza sativa)) was 0, the “Plant response rating, Flood, Sedge, Umbrella” value [10] was 65 and the “Plant response rating, Sedge, Umbrella” value [10, 15] was 0. The “Plant response rating, Sedge, Umbrella” value [10, 16] was 50 and the “Sedge, Umbrella plant response rating” value [10] was 0.

For `O=C1CCCC(O)=C1C(=O)c1cnc(-c2cccc(Cl)c2)n(CC2CCCO2)c1=O` (stereo not drawn) [Compound 142], the “Plant response rating, Barnyardgrass” value [1, 11] was 70, the “Plant response rating, Barnyardgrass” value [1, 17] was 90 and the “Plant response rating, Barnyardgrass” value [1, 13] was 10. The “Plant response rating, Barnyardgrass” value [1, 18] was 80, the “Plant response rating, Corn” value (corn (Zea mays); [11]) was 0 and the “Plant response rating, Corn” value (corn (Zea mays); [17]) was 20. The “Plant response rating, Corn” value (corn (Zea mays); [13]) was 0, the “Plant response rating, Corn” value (corn (Zea mays); [18]) was 0 and the “Plant response rating, Foxtail, Giant” value [2, 11] was 30. For the same compound, the “Plant response rating, Foxtail, Giant” value [2, 17] was 80, the “Plant response rating, Foxtail, Giant” value [2, 13] was 0 and the “Plant response rating, Foxtail, Giant” value [2, 18] was 20. For the same compound, the “Plant response rating, Crabgrass, Large” value [3, 11] was 70, the “Plant response rating, Crabgrass, Large” value [3, 17] was 90 and the “Plant response rating, Crabgrass, Large” value [3, 13] was 30. The “Plant response rating, Crabgrass, Large” value [3, 18] was 80, the “Plant response rating, Morningglory” value [4, 11] was 100 and the “Plant response rating, Morningglory” value [4, 17] was 100. The “Plant response rating, Morningglory” value [4, 13] was 0, the “Plant response rating, Morningglory” value [4, 18] was 50 and the “Plant response rating, Pigweed” value [5, 11] was 90. For the same compound, the “Plant response rating, Pigweed” value [5, 17] was 100, the “Plant response rating, Pigweed” value [5, 13] was 90 and the “Plant response rating, Pigweed” value [5, 18] was 100. For the same compound, the “Plant response rating, Velvetleaf” value [6, 11] was 100, the “Plant response rating, Velvetleaf” value [6, 17] was 100 and the “Plant response rating, Velvetleaf” value [6, 13] was 20. The “Plant response rating, Velvetleaf” value [6, 18] was 60, the “Plant response rating, Wheat” value [7, 11] was 0 and the “Plant response rating, Wheat” value [7, 17] was 20. For the same compound, the “Plant response rating, Wheat” value [7, 13] was 0, the “Plant response rating, Wheat” value [7, 18] was 0 and the “Plant response rating, Flood, Barnyardgrass” value [8] was 10. For the same compound, the “Plant response rating, Barnyardgrass” value [8, 15] was 0, the “Plant response rating, Barnyardgrass” value [8, 16] was 0 and the “Barnyardgrass plant response rating” value [8] was 0. The “Plant response rating, Flood, Ducksalad” value [9] was 80, the “Plant response rating, Ducksalad” value [9, 15] was 0 and the “Plant response rating, Ducksalad” value [9, 16] was 80. For the same compound, the “Ducksalad plant response rating” value [9] was 0, the “Plant response rating, Flood, Rice” value (rice (Oryza sativa)) was 0 and the “Plant response rating, Rice” value (rice (Oryza sativa); [15]) was 0. The “Plant response rating, Rice” value (rice (Oryza sativa); [16]) was 0, the “Rice plant response rating” value (rice (Oryza sativa)) was 0 and the “Plant response rating, Flood, Sedge, Umbrella” value [10] was 80. For the same compound, the “Plant response rating, Sedge, Umbrella” value [10, 15] was 0, the “Plant response rating, Sedge, Umbrella” value [10, 16] was 65 and the “Sedge, Umbrella plant response rating” value [10] was 0.
